Values joined by “and” are separate entries in the source; they are usually repeats but may differ in a detail not shown here. Identical values can stand only once.
Key:
[1] = tested on: GT of non-diabetic Psamomys; assay: Effect on GT of non-diabetic Psamomys; assay type: in vivo
[2] = tested on: liver total lipid, triglyceride and cholesterol; assay: 3H2O incorporation into liver lipids in vivo (total lipid, triglyceride, cholesterol); design: species or system rat; details: n = 5
Procedure: ^3 H2 O incorporation into liver lipids in vico (in μmole/gr liver) was tested in rats fed for 3 days a single daily meal of a high carbohydrate diet containing 0.25% of the active compound of Example 4.
The procedure of Experiment I(b) was repeated for 5 days.
(§1) Rats that have previously been starved for 48 hours, were meal-fed or fed ad libitum a high carbohydrate, fat-free diet for 3-5 days, the diet being supplemented with the active compounds of formula (I) at dosages of 25-250 mg per Kg body weight per day. The biological effects in-vivo were evaluated by following the rate of incorporation of injected radioactive precursors (mainly ^3 H2 O) into liver and adipose tissue lipids and comparing the results observed with those obtained from groups of non-treated rats ("control groups"). Dose-response curves were plotted.

[3] = tested on: oxidation of glucose, palmitate or acetate to CO2; assay: Oxidation of glucose, palmitate or acetate to CO2 in vivo; design: species or system rat; details: rats, additional experiments
[4] = tested on: neutral fat in liver and adipose tissue and liver cholesterol; assay: 3H2O incorporation into neutral fat in liver and adipose tissue and into liver cholesterol in vivo; design: species or system rat
Procedure: as §1
Incorporation of ^3 H2 O into neutral fat in liver and adipose tissue and into liver cholesterol in vivo.
^3 H2 O incorporation into liver and adipose tissue lipids in vivo was tested in rats fed a high carbohydrate diet ad libitum for three days, supplemented with varying proportions (in percent of the diet) of the active compounds of Examples 4, 5 and 9. ^3 H2 O was then administered to the animals and the rates of incorporation of tritium (in μmole/gr/60 min) into various lipid fractions in liver and adipose tissue were determined and compared to the tritium incorporation under identical conditions in the control groups of rats.

[5] = tested on: diabetes induced by steptozocin; assay: Effect on diabetes induced by steptozocin in rats; assay type: in vivo, rat
serum lipids [6] = assay: Serum triglyceride and cholesterol levels in Psamomys Obesus; assay type: in vivo; details: Table VI, young animals, 0.1% in diet, 140 days, n = 7
Procedure: (§2) Psamomys Obesus were fed "Amrod 935" Purina Chow diet supplemented with 0.1% of the active compound of Example 4, ad libitum, for periods of 80 or 140 days. The biological effects of the active compound in vivo were evaluated as reported in the following experiments.
Groups of young and old Psamomys were fed the above described diet for 140 and 80 days, respectively, whereafter the serum triglyceride and cholesterol levels were determined.

serum lipids [7] = assay: Serum lipids in rats fed high carbohydrate, fat-free diet; assay type: in vivo, rat
Procedure: as §1
The hypolipidemic effect was followed by measuring the triglycerides and cholesterol content in serum of treated rats as compared to non-treated rats.
Rats starved for 48 hours were fed a high carbohydrate, fat-free diet ad libitum for 3 or 5 days, supplemented with the active compound of Example 4 at the proportions shown in the following Table III. The serum lipids were determined in the treated rats and compared to a non-treated control group.
(§3) Rats starved for 48 hours were fed a high carbohydrate, fat-free diet supplemented with 0.25% of the active compound of Example 5 for 3 days ad libitum.

serum lipoprotein = assay: Serum lipoprotein profile; assay type: in vivo, rat
Procedure: as §3

LD50 in rats (p.o.) = details: rat, in vivo, po
[8] = Body weight of Psamomys Obesus; assay type: in vivo; details: Table VII; for Weight gain (gr) average: 0.1% in diet
Procedure: as §2
The above experiment was repeated with groups of young and old Psamomys and the body weight determined.

liver triglyceride = assay: Liver triglyceride content of rats fed carbohydrate-rich diet; assay type: in vivo, rat; details: for Reduction in liver triglyceride content (FIG. 4): carbohydrate-rich diet, compared to control group=100%
serum insulin = assay: Serum insulin levels in diabetic Psamomys Obesus; assay type: in vivo; details: non-treated diabetic animals 40-200 uu/ml
glucose tolerance = assay: Glucose tolerance test (GTT) in diabetic Psamomys Obesus; assay type: in vivo; design: Sum of glucose values at 0, 1, 2, 3h, Treatment / Sum of glucose values at 0, 1, 2, 3h, Elimination of Treatment: unit not given here; details: for Sum of glucose values at 0, 1, 2, 3h, Treatment: 0.1% in diet 30-70 days; for Sum of glucose values at 0, 1, 2, 3h, Elimination of Treatment: after return to normal diet
Procedure: as §2
Six Psamomys Obesus fed Purina Chow diet ad libitum were selected for their diabetic trait by following their glucose tolerance test (GTT). The selected animals were then treated by feeding the same Purina diet supplemented with 0.1% of the active compound of Example 4 for periods varying between 30-70 days. The GTT was followed periodically throughout this period, as well as for 50 more days after the drug-supplemented diet had been replaced with the normal diet. A diagram of the GTT curves obtained with one representative animal is shown in FIG. 6 of the attached drawings. The GTT values for all six animals are shown in the following Table VIII as the sum of the glucose values observed at 0^h, 1^h, 2^h, 3^h.

With `CC(C)(CCCCCCCCCCC(C)(C)CC(=O)O)CC(=O)O` [Example 4, 3,3,14,14-Tetramethyl-hexadecane-1,16-dioic acid] the “Effect on GT of non-diabetic Psamomys” value [1] was “affects neither”, the “3H2O incorporation into liver cholesterol” value ([2]; Table I, 3 days, single daily meal, 0.25% in high carbohydrate diet, non-treated 2.7 ± 1.1) was 0.8 ± 0.2 μmole/gr liver and the “3H2O incorporation into liver triglyceride” value ([2]; Table I, 3 days, single daily meal, 0.25% in high carbohydrate diet, non-treated 107 ± 21) was 19 ± 2 μmole/gr liver. For the same molecule, the “3H2O incorporation into liver total lipid” value ([2]; Table I, 3 days, single daily meal, 0.25% in high carbohydrate diet, non-treated 157 ± 34) was 47 ± 5 μmole/gr liver, the “3H2O incorporation into liver cholesterol” value ([2]; Table II, 5 days, procedure of Experiment I(b), non-treated 2.8 ± 0.8) was 1.4 ± 0.4 μmole/gr liver and the “3H2O incorporation into liver triglyceride” value ([2]; Table II, 5 days, procedure of Experiment I(b), non-treated 71 ± 12) was 20 ± 7 μmole/gr liver. The “3H2O incorporation into liver total lipid” value ([2]; Table II, 5 days, procedure of Experiment I(b), non-treated 107 ± 18) was 53 ± 13 μmole/gr liver, the “Oxidation of glucose, palmitate or acetate to CO2 in vivo” value [3] was “does not affect” and the “Inhibition of in vivo incorporation of 3H2O into cholesterol in liver” value ([4]; 100 mg/Kg body wt/day) was 50%. The “Inhibition of in vivo incorporation of 3H2O into neutral fat (diglycerides, triglycerides) in liver” value ([4]; 100 mg/Kg body wt/day) was 50%, the “Inhibition of in vivo incorporation of 3H2O into cholesterol in liver” value ([4]; 250 mg/Kg body wt/day) was 80% and the “Inhibition of in vivo incorporation of 3H2O into neutral fat (diglycerides, triglycerides) in liver” value ([4]; 250 mg/Kg body wt/day) was 80%. For the same molecule, the “In vivo incorporation of 3H2O into neutral fat in adipose tissue” value ([4]; adipose tissue) was “block”, the “Effect on diabetes induced by steptozocin” value [5] was “affects neither” and the Serum cholesterol (serum lipids [6]; non-treated 65 ± 7) was 46 ± 7 mg %. The Serum triglycerides (serum lipids [6]; non-treated 205 ± 29) was 62 ± 15 mg %, the Serum triglycerides (serum lipids [7]; Table III, 0.06% of diet, ad libitum 3 or 5 days, n = 5, non-treated 41 ± 6) was 15 ± 4 mg % and the Serum cholesterol (serum lipids [7]; Table III, 0.06% of diet, ad libitum 3 or 5 days, n = 5, non-treated 64 + 10) was 38 ± 5 mg %. The Serum triglycerides (serum lipids [7]; Table III, 0.15% of diet, ad libitum 3 or 5 days, n = 5, non-treated 41 ± 6) was 21 ± 4 mg %, the Serum cholesterol (serum lipids [7]; Table III, 0.15% of diet, ad libitum 3 or 5 days, n = 5, non-treated 64 + 10) was 32 ± 5 mg % and the Serum triglycerides (serum lipids [7]; Table III, 0.25% of diet, ad libitum 3 or 5 days, n = 5, non-treated 41 ± 6) was 15 ± 4 mg %. For the same molecule, the Serum cholesterol (serum lipids [7]; Table III, 0.25% of diet, ad libitum 3 or 5 days, n = 5, non-treated 64 + 10) was 31 ±3 mg %, the “Decrease in serum cholesterol” value (serum lipids [7]; summary, rats) was 50% and the “Decrease in serum glycerides” value (serum lipids [7]; summary, rats) was “up to 60%”. The “Change in the serum lipoprotein profile” value (serum lipoprotein; summary, rats) was “significant change in the serum lipoprotein profile”, the LD50 (LD50 in rats (p.o.)) was > 7000 mg/kg and the “Weight gain (gr) average” value ([8]; old animals, initial 254 ± 52, non-treated gain 11 ± 13) was -26 ± 8 gr. For the same molecule, the “Weight gain (gr) average” value ([8]; young animals, n = 7, initial 92 ± 19, non-treated gain 57 ± 33) was 36 ± 12 gr, the “Weight gain (gr)” value ([8]; young animals, individual values, non-treated 38, 38, 40, 55, 116) was 25 gr and 29 gr and 31 gr and 32 gr and 33 gr and 38 gr and 62 gr and the “Siblings' weight grain (gr)” value ([8]; young animals, siblings a, non-treated sibling 55) was 25 gr and 33 gr. The “Siblings' weight grain (gr)” value ([8]; young animals, siblings b, non-treated sibling 116) was 31 gr and 38 gr, the “Reduction in liver triglyceride content (FIG. 4)” value (shortened to “Reduction”) (liver triglyceride) was “reduction in liver triglyceride content” and the “Decrease in the triglyceride content of the liver” value (liver triglyceride; summary, rats) was 30-50%. For the same molecule, the “Serum insulin levels during the treatment period” value (serum insulin) was “lower than 40 uu/ml”, the “Correction of the GTT curve” value (glucose tolerance; 0.1% in diet, 30-70 days) was “correction of the GTT curve in 5 or 6 test animals” and the “Sum of glucose values at 0, 1, 2, 3h, Treatment” value (“Sum … 3h, Treatment” for short) (glucose tolerance; Psamomys I, pretreatment 779, 1082) was 364. The “Sum … 3h, Treatment” value (glucose tolerance; Psamomys II, pretreatment 947, 980, 958) was 442, the “Sum … 3h, Treatment” value (glucose tolerance; Psamomys III, pretreatment 790) was 296 and 329 and 326 and the “Sum of glucose values at 0, 1, 2, 3h, Elimination of Treatment” value (“Sum of glucose values … of Treatment” for short) (glucose tolerance; Psamomys III) was 849. For the same molecule, the “Sum … 3h, Treatment” value (glucose tolerance; Psamomys IV, pretreatment 992) was 358 and 336 and 465, the “Sum of glucose values … of Treatment” value (glucose tolerance; Psamomys IV) was 1049 and the “Sum … 3h, Treatment” value (glucose tolerance; Psamomys V, pretreatment 867) was 434 and 257 and 388. For the same molecule, the “Sum of glucose values … of Treatment” value (glucose tolerance; Psamomys V) was 470, the “Sum … 3h, Treatment” value (glucose tolerance; Psamomys VI, pretreatment 717) was 555 and the “Diabetic trait after termination of the treatment” value (glucose tolerance; after termination of the treatment) was “revert to their original diabetic trait”.

In the case of `CC(C)(CCCCCCCCCCCCC(C)(C)CC(=O)O)CC(=O)O` [Example 5, 3,3,16,16-Tetramethyl-octadecane-1,18-dioic acid], the Serum triglycerides (serum lipids [7]; Table IV, 0.25% of diet, 3 days ad libitum, n = 9, non-treated 48 ± 6) is reported as 33 ± 3 mg %, the Serum cholesterol (serum lipids [7]; Table IV, 0.25% of diet, 3 days ad libitum, n = 12, non-treated 80 ± 12) is reported as 40 ± 11 mg % and the “HDL (VLDL + LDL)” value (serum lipoprotein; Table V, 0.25% of diet, 3 days, non-treated 1.05) is reported as 1.50. It also gave an LDL cholesterol (serum lipoprotein; Table V, 0.25% of diet, 3 days, non-treated 19.00) of 6.00 mg %, a VLDL cholesterol (serum lipoprotein; Table V, 0.25% of diet, 3 days, non-treated 23.00) of 10.00 mg % and an HDL cholesterol (serum lipoprotein; Table V, 0.25% of diet, 3 days, non-treated 43.00) of 24.00 mg %. The “Reduction” value (liver triglyceride) was “reduction in liver triglyceride content”.

With `CC(C)(CCCCCCCCCCC(C)(C)C(Br)C(=O)O)C(Br)C(=O)O` (centres unmarked) [Example 9, 2,15-Dibromo-3,3,14,14-tetramethyl-hexadecane-1,16-dioic acid] the “Reduction” value (liver triglyceride) was “reduction in liver triglyceride content”.

Source: patent publication US4689344A, “Long-chain α,ω-dicarboxylic acids and derivatives thereof and pharmaceutical compositions containing them” (Epis S.A., priority 1981, dated 1987)
